Laboratory results from PubChem BioAssay (NCI).
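Growth conditions: 96-well plates. Treatment: test compound, 48 hours, 5 concentrations. Analysis: linear interpolation between bracketing concentrations; unreached endpoints set to highest concentration. TGI is the concentration that stops growth completely.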

Assays:
Assay in all cases: DTP human tumour cell line panel, 48 h
A549 NSCLC = test system: A549 NSCLC
CCRF-CEM leukemia = test system: CCRF-CEM leukemia
DU-145 prostate = test system: DU-145 prostate
EKVX NSCLC = test system: EKVX NSCLC
HCT-116 colon = test system: HCT-116 colon
HCT-15 colon = test system: HCT-15 colon
HOP-62 NSCLC = test system: HOP-62 NSCLC
KM12 colon = test system: KM12 colon
LOX IMVI melanoma = test system: LOX IMVI melanoma
MALME-3M melanoma = test system: MALME-3M melanoma
MCF7 breast = test system: MCF7 breast
NCI-H460 lung = test system: NCI-H460 lung
OVCAR-4 ovarian = test system: OVCAR-4 ovarian
OVCAR-8 ovarian = test system: OVCAR-8 ovarian
PC-3 prostate = test system: PC-3 prostate
SNB-19 CNS = test system: SNB-19 CNS
T-47D breast = test system: T-47D breast
UACC-62 melanoma = test system: UACC-62 melanoma
HL-60(TB) leukemia = test system: HL-60(TB) leukemia
NCI-H226 lung = test system: NCI-H226 lung

Structure (SMILES) | TGI (A549 NSCLC) [µM] | TGI (CCRF-CEM leukemia) [µM] | TGI (DU-145 prostate) [µM] | TGI (EKVX NSCLC) [µM] | TGI (HCT-116 colon) [µM] | TGI (HCT-15 colon) [µM] | TGI (HOP-62 NSCLC) [µM] | TGI (KM12 colon) [µM] | TGI (LOX IMVI melanoma) [µM] | TGI (MALME-3M melanoma) [µM] | TGI (MCF7 breast) [µM] | TGI (NCI-H460 lung) [µM] | TGI (OVCAR-4 ovarian) [µM] | TGI (OVCAR-8 ovarian) [µM] | TGI (PC-3 prostate) [µM] | TGI (SNB-19 CNS) [µM] | TGI (T-47D breast) [µM] | TGI (UACC-62 melanoma) [µM] | TGI (HL-60(TB) leukemia) [µM] | TGI (NCI-H226 lung) [µM]
Cc1c(-c2ccc(O)cc2)n(CCCCCCNCCOC(=O)NCCCc2ccc(N(CCCl)CCCl)cc2)c2ccc(O)cc12 | 3.93 | 6.67 | 3.97 | 9.89 | 2.94 | 3.56 | 8.57 | 3.75 | 2.97 | 3.12 | 2.23 | 5.05 | 4.44 | 2.88 | 11.4 | 28.1 | 5.8 | 3.26 | – | –
CC1=NN(c2nc(N)nc(/C(C#N)=C/c3ccccc3O)n2)C(C)(C)C1 | 31.5 | 35.5 | 32 | 37.5 | 32.2 | 38.6 | 38.8 | 31.4 | – | 33.8 | 64.9 | 40.9 | 34.2 | 61.6 | 31.6 | 91.7 | 31.9 | 33.5 | 65.3 | 37.8
CC(=O)Oc1c(C)c2c(c3ncccc13)OC(C)C2 (configuration not stated) | 26.2 | 38.5 | 29.8 | 30.8 | 32.3 | 24.5 | 30.9 | 28.7 | – | 30.2 | 32.5 | 22.7 | 29.9 | 27.5 | 92.1 | > 100 | 34.8 | 24.6 | 38.8 | 32.8
CSC1=C(C#N)C(=S)N=C(N)C1C(=O)Nc1ccc(C)cc1 (configuration not stated) | > 100 | > 100 | > 100 | > 100 | > 100 | > 100 | – | > 100 | > 100 | > 100 | – | > 100 | > 100 | > 100 | > 100 | > 100 | > 100 | > 100 | > 100 | > 100
Cc1ccc(Nc2nc(=O)c3c4ccccc4n(C(=O)OC(C)(C)C)c3s2)cc1 | > 100 | > 100 | > 100 | > 100 | – | > 100 | 64.1 | 54.5 | 46.7 | 66.3 | – | 43.1 | > 100 | > 100 | > 100 | > 100 | > 100 | 63.5 | 59 | –
C=CC[C@H]1O[Si](C(C)(C)C)(C(C)(C)C)[C@H](C)[C@H]1C | > 100 | > 100 | – | > 100 | > 100 | > 100 | > 100 | > 100 | > 100 | > 100 | > 100 | – | > 100 | > 100 | > 100 | > 100 | > 100 | > 100 | > 100 | > 100
CCN(CC)c1ccc2cc(C(N)=O)c(=N)oc2c1 | > 100 | > 100 | > 100 | – | > 100 | > 100 | > 100 | > 100 | > 100 | – | – | > 100 | 74.1 | > 100 | 87.6 | > 100 | 83.9 | > 100 | > 100 | > 100
COc1ccc(/C=c2/sc3n(c2=O)C(c2ccccc2)C2(O)CCCCC2N=3)cc1 (configuration not stated) | > 12.5 | > 12.5 | – | – | > 12.5 | – | > 12.5 | – | > 12.5 | > 12.5 | > 12.5 | > 12.5 | > 12.5 | > 12.5 | > 12.5 | > 12.5 | > 12.5 | > 12.5 | > 12.5 | > 12.5
O=C1C=Cc2c(Br)sc(Br)c21 | > 100 | 11.3 | > 100 | 81 | 77.1 | 90.4 | 84.8 | > 100 | 48.4 | 64.6 | > 100 | > 100 | – | > 100 | 49.7 | > 100 | 81.8 | 76.4 | 58.7 | –
CN(CC(=O)N1CC(CCl)c2ccc([N+](=O)[O-])cc21)CC(=O)N1CC(CCl)c2ccc([N+](=O)[O-])cc21 (configuration not stated) | > 100 | > 100 | > 100 | > 100 | > 100 | > 100 | > 100 | > 100 | > 100 | > 100 | > 100 | > 100 | – | > 100 | > 100 | > 100 | – | > 100 | > 100 | > 100
CC(=O)Nc1oc(C)c(C)c1S(=O)(=O)c1ccc(Cl)cc1 | > 100 | > 100 | > 100 | > 100 | > 100 | > 100 | – | > 100 | – | > 100 | > 100 | > 100 | > 100 | > 100 | 83.4 | > 100 | > 100 | > 100 | > 100 | > 100
COc1cc2c(cc1OC)[C@@H]1[C@H](C#N)C(=O)C(C)(C)N1CC2 | > 100 | > 100 | > 100 | > 100 | > 100 | > 100 | – | > 100 | > 100 | > 100 | > 100 | > 100 | > 100 | > 100 | > 100 | > 100 | – | > 100 | > 100 | > 100
CN(C)c1ccc(C2CC(c3ccc4ccccc4c3O)=NN2)cc1 (configuration not stated) | > 100 | 83.3 | > 100 | – | > 100 | > 100 | > 100 | > 100 | – | > 100 | > 100 | > 100 | > 100 | > 100 | > 100 | – | > 100 | > 100 | – | > 100
Cc1ccc2c(c1)[nH]c(=S)n2C=C(C(N)=O)C(N)=O | > 100 | – | > 100 | > 100 | > 100 | > 100 | > 100 | > 100 | > 100 | – | – | > 100 | > 100 | > 100 | – | > 100 | > 100 | > 100 | > 100 | > 100
C=C(C)[C@@H]1CCC2=C[C@@H](OC2=O)[C@@H](C(=C)C)C2=CC(C(=O)O)=C(C1)O2 | > 100 | > 100 | > 100 | > 100 | > 100 | > 100 | > 100 | > 100 | > 100 | > 100 | > 100 | – | > 100 | > 100 | – | > 100 | > 100 | > 100 | > 100 | > 100
Cc1nnc2n1N=C(c1ccccc1)/C(=C/c1ccc(-c3ccc(Cl)cc3)o1)S2 | 49.4 | 16.4 | 38.9 | 53.3 | 25.9 | 31.3 | 49.8 | 32.4 | – | 33.6 | > 100 | 34.2 | 80 | – | 26 | 35 | 42.4 | 29.1 | 28.4 | 31.1
C/C=C/C(C#N)(/C=C/c1ccccc1)OP1(=O)OC(c2ccccc2)C(C)N1C (configuration not stated) | 45.4 | 28 | 90.1 | 44.5 | 31.3 | – | 36.1 | 36.7 | 35 | 38.8 | 49.4 | 33.8 | – | 35.5 | 33.3 | 42.1 | 68.9 | 34.5 | 32.9 | –
O=C(Nc1ccccc1)OCCN=C1c2ccccc2C(Br)C(Br)c2ccccc21 (configuration not stated) | 25.4 | 5.3 | 16 | 19.8 | 13.3 | > 24.2 | 19.9 | 18.7 | 13.4 | 16.3 | > 31.6 | 19.5 | 21.9 | 13 | > 31.6 | 27 | – | 17.6 | 3.85 | 19.2
CN1CCc2cc3c(c4c2C1C(O)c1ccccc1-4)OCO3 (configuration not stated) | 52.1 | 9.69 | > 100 | 35.4 | > 100 | 20.3 | 18.6 | 24 | 25.1 | 23.2 | 19.3 | 11.9 | 29.5 | 50.5 | 18.6 | > 100 | > 100 | 25.9 | 5.06 | –
O=C(NC(=S)Nc1ccc(Br)cc1)c1ccc2c(c1)Sc1ccccc1S2 | 48.6 | 54.1 | 32.4 | – | 51 | > 100 | 31 | 74.8 | 61.4 | 48.5 | > 100 | 32.3 | 33.5 | 34.7 | > 100 | 54.4 | 33.4 | 74.8 | 42.7 | 47.7
CN1Cc2ccccc2S(=O)(=O)n2cccc2C1=O | > 100 | > 100 | > 100 | > 100 | > 100 | > 100 | > 100 | > 100 | > 100 | – | > 100 | > 100 | > 100 | – | > 100 | – | > 100 | > 100 | > 100 | –
S=c1nc2sc3c(c2c(Nc2ccc(Cl)cc2)[nH]1)CCCC3 | – | > 100 | > 100 | > 100 | > 100 | > 100 | > 100 | > 100 | > 100 | > 100 | > 100 | > 100 | > 100 | – | > 100 | > 100 | – | > 100 | > 100 | > 100
Cc1cccc2oc3c(CC(=O)O)cccc3c(=O)c12 | > 100 | > 100 | > 100 | > 100 | > 100 | > 100 | > 100 | > 100 | > 100 | > 100 | > 100 | > 100 | > 100 | > 100 | > 100 | > 100 | – | – | > 100 | > 100
COc1ccc2c(c1)CC[C@@H]1[C@@H]2CC[C@]2(C)C(=O)/C(=C/c3ccc(N(C)C)cc3)C[C@@H]12 | > 100 | – | > 100 | > 100 | > 100 | > 100 | 44.8 | > 100 | – | > 100 | – | > 100 | > 100 | – | > 100 | > 100 | > 100 | > 100 | > 100 | –
S=C(N1CCN(c2ccc(Cl)c(Cl)c2)CC1)N1CCN(c2ccc(Cl)c(Cl)c2)CC1 | 37.9 | 9.44 | 28.1 | 15.2 | 19.4 | 28.8 | 26.5 | 27.1 | – | 28.1 | 24 | – | 28.3 | 28.3 | 28.2 | 26.7 | 23.3 | 28.8 | – | 23.8
C1=CC2(C=CC13O[C@H](C1CCCCC1)[C@@H](C1CCCCC1)O3)O[C@H](C1CCCCC1)[C@@H](C1CCCCC1)O2 | > 50 | – | > 50 | – | > 50 | > 50 | > 50 | > 50 | > 50 | > 50 | > 50 | > 50 | > 50 | > 50 | > 50 | > 50 | > 50 | > 50 | > 50 | > 50
